In ChEMBL document CHEMBL4229379, “Synthesis and structure-activity relationship of novel bisindole amidines active against MDR Gram-positive and Gram-negative bacteria” (Eur J Med Chem, 2018):
Values after ≈ are worked out from the molar mass of the structure shown.

Columns and labels:
Type in all cases: functional
[1] = tested on: Staphylococcus epidermidis; assay: Antibacterial activity against methicillin-sensitive Staphylococcus epidermidis ATCC 12228 after 18 hrs by CLSI broth microdilution method; settings: ATCC 12228, 18 h
[2] = tested on: Staphylococcus epidermidis; assay: Antibacterial activity against methicillin-resistant Staphylococcus epidermidis 12-8 after 18 hrs by CLSI broth microdilution method; settings: 12-8, 18 h
[3] = tested on: Staphylococcus aureus; assay: Antibacterial activity against methicillin-sensitive Staphylococcus aureus ATCC 29213 after 18 hrs by CLSI broth microdilution method; settings: ATCC 29213, 18 h
[4] = tested on: Staphylococcus aureus; assay: Antibacterial activity against methicillin-resistant Staphylococcus aureus 12-33 after 18 hrs by CLSI broth microdilution method; settings: 12-33, 18 h
[5] = tested on: Enterococcus faecalis; assay: Antibacterial activity against vancomycin-sensitive Enterococcus faecalis ATCC 29212 after 18 hrs by CLSI broth microdilution method; settings: ATCC 29212, 18 h
[6] = tested on: Enterococcus faecalis; assay: Antibacterial activity against vancomycin-resistant Enterococcus faecalis 09-9 after 18 hrs by CLSI broth microdilution method; settings: 09-9, 18 h
[7] = tested on: Enterococcus faecium; assay: Antibacterial activity against vancomycin-resistant Enterococcus faecium ATCC 700221 after 18 hrs by CLSI broth microdilution method; settings: ATCC 700221, 18 h
[8] = tested on: Enterococcus faecium; assay: Antibacterial activity against vancomycin-sensitive Enterococcus faecium 12-3 after 18 hrs by CLSI broth microdilution method; settings: 12-3, 18 h
[9] = tested on: Escherichia coli; assay: Antibacterial activity against extended-spectrum beta-lactamase deficient Escherichia coli ATCC 25922 after 18 hrs by CLSI broth microdilution method; settings: ATCC 25922, 18 h
[10] = tested on: Escherichia coli; assay: Antibacterial activity against extended-spectrum beta-lactamase harboring Escherichia coli 12-15 after 18 hrs by CLSI broth microdilution method; settings: 12-15, 18 h
[11] = tested on: Klebsiella pneumoniae; assay: Antibacterial activity against new delhi metallo-beta-lactamase-1 harboring Klebsiella pneumoniae ATCC BAA-2146 after 18 hrs by CLSI broth microdilution method; settings: ATCC BAA-2146, 18 h
[12] = tested on: Klebsiella pneumoniae; assay: Antibacterial activity against extended-spectrum beta-lactamase harboring Klebsiella pneumoniae 12-8 after 18 hrs by CLSI broth microdilution method; settings: 12-8, 18 h
[13] = tested on: Pseudomonas aeruginosa; assay: Antibacterial activity against Pseudomonas aeruginosa ATCC 27853 after 18 hrs by CLSI broth microdilution method; settings: ATCC 27853, 18 h
[14] = tested on: Acinetobacter calcoaceticus; assay: Antibacterial activity against Acinetobacter calcoaceticus ATCC 19606 after 18 hrs by CLSI broth microdilution method; settings: ATCC 19606, 18 h
[15] = tested on: Enterobacter cloacae; assay: Antibacterial activity against Enterobacter cloacae ATCC 43560 after 18 hrs by CLSI broth microdilution method; settings: ATCC 43560, 18 h
[16] = tested on: Proteus mirabilis; assay: Antibacterial activity against Proteus mirabilis 12-6 after 18 hrs by CLSI broth microdilution method; settings: 12-6, 18 h
[17] = tested on: Escherichia coli; assay: Antibacterial activity against extended-spectrum beta-lactamase harboring Escherichia coli 13-1 after 18 hrs by CLSI broth microdilution method; settings: 13-1, 18 h
[18] = tested on: Escherichia coli; assay: Antibacterial activity against extended-spectrum beta-lactamase harboring Escherichia coli CDC1001728 after 18 hrs by CLSI broth microdilution method; settings: CDC1001728, 18 h
[19] = tested on: Klebsiella pneumoniae; assay: Antibacterial activity against carbapenem-resistant Klebsiella pneumoniae 12-11 after 18 hrs by CLSI broth microdilution method; settings: 12-11, 18 h
[20] = tested on: Klebsiella pneumoniae; assay: Antibacterial activity against carbapenem-resistant Klebsiella pneumoniae 12-12 after 18 hrs by CLSI broth microdilution method; settings: 12-12, 18 h
[21] = tested on: Acinetobacter calcoaceticus; assay: Antibacterial activity against new delhi metallo-beta-lactamase-1 harboring Acinetobacter calcoaceticus 13-1 after 18 hrs by CLSI broth microdilution method; settings: 13-1, 18 h
[22] = tested on: Acinetobacter calcoaceticus; assay: Antibacterial activity against carbapenem-resistant Acinetobacter calcoaceticus 12-6 after 18 hrs by CLSI broth microdilution method; settings: 12-6, 18 h
[23] = tested on: Klebsiella aerogenes; assay: Antibacterial activity against carbapenem-resistant Enterobacter aerogenes 11-4 after 18 hrs by CLSI broth microdilution method; settings: 11-4, 18 h
[24] = tested on: Enterobacter cloacae; assay: Antibacterial activity against new delhi metallo-beta-lactamase-1 harboring Enterobacter cloacae CDC1000654 after 18 hrs by CLSI broth microdilution method; settings: CDC1000654, 18 h
[25] = tested on: Enterobacter cloacae; assay: Antibacterial activity against new delhi metallo-beta-lactamase-1 harboring Enterobacter cloacae 13-1 after 18 hrs by CLSI broth microdilution method; settings: 13-1, 18 h
[26] = tested on: Staphylococcus epidermidis; assay: Antibacterial activity against methicillin-sensitive Staphylococcus epidermidis 12-6 after 18 hrs by CLSI broth microdilution method; settings: 12-6, 18 h
[27] = tested on: Staphylococcus aureus; assay: Antibacterial activity against methicillin-resistant Staphylococcus aureus ATCC 33591 after 18 hrs by CLSI broth microdilution method; settings: ATCC 33591, 18 h
[28] = tested on: Staphylococcus aureus; assay: Antibacterial activity against methicillin-sensitive Staphylococcus aureus 15 after 18 hrs by CLSI broth microdilution method; settings: Staphylococcus aureus, 15, 18 h
[29] = tested on: Staphylococcus aureus; assay: Antibacterial activity against methicillin-sensitive Staphylococcus aureus 12-28 after 18 hrs by CLSI broth microdilution method; settings: 12-28, 18 h
[30] = tested on: Enterococcus faecalis; assay: Antibacterial activity against vancomycin-resistant Enterococcus faecalis ATCC 51299 after 18 hrs by CLSI broth microdilution method; settings: ATCC 51299, 18 h
[31] = tested on: Enterococcus faecalis; assay: Antibacterial activity against vancomycin-sensitive Enterococcus faecalis 12-5 after 18 hrs by CLSI broth microdilution method; settings: 12-5, 18 h
[32] = tested on: Enterococcus faecium; assay: Antibacterial activity against vancomycin-resistant Enterococcus faecium 12-1 after 18 hrs by CLSI broth microdilution method; settings: 12-1, 18 h
[33] = tested on: Escherichia coli; assay: Antibacterial activity against extended-spectrum beta-lactamase deficient Escherichia coli 1515 after 18 hrs by CLSI broth microdilution method; settings: Escherichia coli, 1515, 18 h
[34] = tested on: Klebsiella pneumoniae; assay: Antibacterial activity against extended-spectrum beta-lactamase deficient Klebsiella pneumoniae 7 after 18 hrs by CLSI broth microdilution method; settings: Klebsiella pneumoniae, 7, 18 h
[35] = tested on: Klebsiella pneumoniae; assay: Antibacterial activity against extended-spectrum beta-lactamase deficient Klebsiella pneumoniae 12-4 after 18 hrs by CLSI broth microdilution method; settings: 12-4, 18 h
[36] = tested on: Pseudomonas aeruginosa; assay: Antibacterial activity against Pseudomonas aeruginosa 12-16 after 18 hrs by CLSI broth microdilution method; settings: 12-16, 18 h
[37] = tested on: Klebsiella aerogenes; assay: Antibacterial activity against Enterobacter aerogenes ATCC 13048 after 18 hrs by CLSI broth microdilution method; settings: ATCC 13048, 18 h
[38] = tested on: Serratia marcescens; assay: Antibacterial activity against Serratia marcescens ATCC 21074 after 18 hrs by CLSI broth microdilution method; settings: ATCC 21074, 18 h
[39] = tested on: Providencia rettgeri; assay: Antibacterial activity against Providencia rettgeri ATCC 31052 after 18 hrs by CLSI broth microdilution method; settings: ATCC 31052, 18 h
[40] = tested on: Proteus vulgaris; assay: Antibacterial activity against Proteus vulgaris ATCC 29905 after 18 hrs by CLSI broth microdilution method; settings: ATCC 29905, 18 h
[41] = tested on: Stenotrophomonas maltophilia; assay: Antibacterial activity against Stenotrophomonas maltophilia ATCC 13636 after 18 hrs by CLSI broth microdilution method; settings: ATCC 13636, 18 h
[42] = tested on: Citrobacter freundii; assay: Antibacterial activity against Citrobacter freundii ATCC 43864 after 18 hrs by CLSI broth microdilution method; settings: ATCC 43864, 18 h
[43] = tested on: Klebsiella pneumoniae; assay: Antibacterial activity against new delhi metallo-beta-lactamase-1 harboring Klebsiella pneumoniae 13-1 after 18 hrs by CLSI broth microdilution method; settings: 13-1, 18 h

**Q.** Which results are given for C[C@H]1COc2c(N3CCN(C)CC3)c(F)cc3c(=O)c(C(=O)O)cn1c23.C[C@H]1COc2c(N3CCN(C)CC3)c(F)cc3c(=O)c(C(=O)O)cn1c23.O [LEVOFLOXACIN]?
**A.** MIC [1]: 0.125 µg/mL; MIC [2]: 4 µg/mL; MIC [3]: 0.125 µg/mL; MIC [4]: 32 µg/mL; MIC [5]: 0.5 µg/mL; MIC [6]: > 128 µg/mL; MIC [7]: 64 µg/mL; MIC [8]: 32 µg/mL; MIC [9]: ≤ 0.03 µg/mL; MIC [10]: 16 µg/mL; MIC [11]: > 128 µg/mL; MIC [12]: 8 µg/mL; MIC [13]: 0.5 µg/mL; MIC [14]: 0.5 µg/mL; MIC [15]: ≤ 0.03 µg/mL; MIC [16]: 4 µg/mL; MIC [17]: 64 µg/mL; MIC [18]: 16 µg/mL; MIC [19]: 16 µg/mL; MIC [20]: 8 µg/mL; MIC [21]: 2 µg/mL; MIC [22]: 8 µg/mL; MIC [23]: 16 µg/mL; MIC [24]: 32 µg/mL; MIC [25]: 128 µg/mL; MIC [26]: 0.5 µg/mL; MIC [27]: 0.125 µg/mL; MIC [28]: 0.125 µg/mL; MIC [29]: 0.125 µg/mL; MIC [30]: 0.5 µg/mL; MIC [31]: 1 µg/mL; MIC [32]: 32 µg/mL; MIC [33]: ≤ 0.03 µg/mL; MIC [34]: ≤ 0.03 µg/mL; MIC [35]: ≤ 0.03 µg/mL; MIC [36]: 8 µg/mL; MIC [37]: ≤ 0.03 µg/mL; MIC [38]: 0.06 µg/mL; MIC [39]: ≤ 0.03 µg/mL; MIC [40]: 0.125 µg/mL; MIC [41]: 0.25 µg/mL; MIC [42]: ≤ 0.03 µg/mL

**Q.** With C[C@@H](O)[C@H]1C(=O)N2C(C(=O)O)=C(S[C@@H]3CN[C@H](C(=O)N(C)C)C3)[C@H](C)[C@H]12 [MEROPENEM] as the molecule, how does the MIC [17] read?
**A.** 4 µg/mL (≈ 10.4 µM)

**Q.** And the MIC [18]?
**A.** 2 µg/mL (≈ 5.22 µM)

**Q.** What about the MIC [43] of the same molecule?
**A.** 8 µg/mL (≈ 20.9 µM)

**Q.** What about the MIC [19] of the same molecule?
**A.** 64 µg/mL (≈ 167 µM)

**Q.** And the MIC [20]?
**A.** 32 µg/mL (≈ 83.4 µM)

**Q.** And the MIC [21]?
**A.** 64 µg/mL (≈ 167 µM)

**Q.** What about the MIC [22] of the same molecule?
**A.** 32 µg/mL (≈ 83.4 µM)

**Q.** And the MIC [23]?
**A.** 32 µg/mL (≈ 83.4 µM)

**Q.** What about the MIC [24] of the same molecule?
**A.** 2 µg/mL (≈ 5.22 µM)

**Q.** And the MIC [25]?
**A.** 32 µg/mL (≈ 83.4 µM)
